Reference: US20230013669A1, “Antibacterial Treatment Using a Cannabinoid and an Active Agent” (priority 2019, published 2023)
Values joined by “and” are separate entries in the source; they are usually repeats but may differ in a detail not shown here. Identical values can stand only once. Like-named read-outs stand apart in the source and are kept apart here.

Tested on: Pseudomonas aeruginosa ATCC 27853 (GN_042)
Assay: Synergy of cannabidiol with cell-wall disrupting agent (CBD MIC in combination, FICI)
Assay type: cell-based
Conditions: for CBD MIC with Cefotetan: Cefotetan at 128 μg/mL; for FICI: calculated using MIC of 256 μg/mL for cannabidiol; for MIC: Pseudomonas aeruginosa
Procedure: The compounds were stored short term at 4° C.
Analysis was performed using Microsoft Excel.

Question: Which “CBD MIC with Cefotetan” value does the source give for C=C(C)C1CCC(C)=CC1c1c(O)cc(CCCCC)cc1O (centres unmarked) [Cannabidiol, 2-[3-methyl-6-(1-methylethenyl)-2-cyclohexen-1-yl]-5-pentyl-1,3-benzenediol] here?
Answer: >32 µg/mL

Question: What about the “CBD MIC with Cefotetan” value (Pseudomonas aeruginosa ATCC 27853) of the same molecule?
Answer: >256 µg/mL

Question: What about the “CBD MIC with Ceftazidime” value (Ceftazidime at 0.015 μg/mL as headed in Table 64, Pseudomonas aeruginosa ATCC 27853) of the same molecule?
Answer: >256 µg/mL

Question: And the “CBD MIC with Ceftazidime” value (Ceftazidime at 0.031 μg/mL as headed in Table 64, Pseudomonas aeruginosa ATCC 27853)?
Answer: >256 µg/mL

Question: What about the “CBD MIC with Ceftazidime” value (Ceftazidime at 0.062 μg/mL as headed in Table 64, Pseudomonas aeruginosa ATCC 27853) of the same molecule?
Answer: >256 µg/mL

Question: What about the “CBD MIC with Ceftazidime” value (Ceftazidime at 0.25 μg/mL (Table 66), Pseudomonas aeruginosa ATCC 27853) of the same molecule?
Answer: >32 µg/mL

Question: What about the “CBD MIC with Ceftazidime” value (Ceftazidime at 0.25 μg/mL as headed in Table 64, Pseudomonas aeruginosa ATCC 27853) of the same molecule?
Answer: 0.001 µg/mL

Question: And the “CBD MIC with Ceftazidime” value (Ceftazidime at 0.5 μg/mL (Table 66), Pseudomonas aeruginosa ATCC 27853)?
Answer: >32 µg/mL

Question: And the “CBD MIC with Ceftazidime” value (Ceftazidime at 0.5 μg/mL as headed in Table 64, Pseudomonas aeruginosa ATCC 27853)?
Answer: 0.001 µg/mL

Question: What about the “CBD MIC with Ceftazidime” value (Ceftazidime at 1 μg/mL (Table 66), Pseudomonas aeruginosa ATCC 27853) of the same molecule?
Answer: >32 µg/mL

Question: And the “CBD MIC with Ceftazidime” value (Ceftazidime at 2 μg/mL (Table 66), Pseudomonas aeruginosa ATCC 27853)?
Answer: 0.001 µg/mL

Question: What about the “CBD MIC with Ceftazidime” value (Ceftazidime at 4 μg/mL (Table 66), Pseudomonas aeruginosa ATCC 27853) of the same molecule?
Answer: 0.001 µg/mL

Question: And the “CBD MIC with Ceftazidime” value (Ceftazidime at […] (Table 66), Pseudomonas aeruginosa ATCC 27853)?
Answer: >32 µg/mL

Question: What about the “CBD MIC with Colistin” value (Colistin at 1 μg/mL, Pseudomonas aeruginosa ATCC 27853) of the same molecule?
Answer: 0.001 µg/mL

Question: What about the “activity of cannabidiol in combination with Polymyxin B” value (Example 1) of the same molecule?
Answer: effective

Question: And the “Average FICI score” value (Example 1, GN_042, cannabidiol + MCC_006636 (Polymyxin B))?
Answer: 0.265

Question: And the Synergy (Example 1, GN_042, cannabidiol + MCC_006636 (Polymyxin B), synergy when FICI≤0.5)?
Answer: YES

Question: And the “activity of cannabidiol combined with Polymyxin B” value (Example 6)?
Answer: effective

Question: And the “CBD MIC with Polymyxin B at concentration 0.015625 μg/mL” value (Example 6, GN_042)?
Answer: >256 µg/mL

Question: What about the “CBD MIC with Polymyxin B at concentration 0.03125 μg/mL” value (Example 6, GN_042) of the same molecule?
Answer: >256 µg/mL

Question: And the “CBD MIC with Polymyxin B at concentration 0.0625 μg/mL” value (Example 6, GN_042)?
Answer: >256 µg/mL

Question: And the “CBD MIC with Polymyxin B at concentration 0.25 μg/mL” value (Example 6, GN_042)?
Answer: >256 µg/mL

Question: And the “CBD MIC with Polymyxin B at concentration […]” value (Example 6, GN_042)?
Answer: >256 µg/mL

Question: And the “CBD MIC with Polymyxin B at concentration 0.5 μg/mL” value (Example 6, GN_042, listed as CBD)?
Answer: 2 µg/mL and 4 µg/mL

Question: And the “activity of cannabidiol combined with ticarcillin” value (Example 13)?
Answer: effective

Question: And the “activity of cannabidiol combined with ceftazidime” value (Example 16)?
Answer: effective

Question: And the “activity of cannabidiol combined with aztreonam” value (Example 18)?
Answer: effective

Question: What about the “activity of cannabidiol combined with octapeptin C4” value (Example 21) of the same molecule?
Answer: effective

Question: What about the “activity of cannabidiol in combination with MCC_8980” value (Example 24) of the same molecule?
Answer: effective

Question: And the FICI range (Pseudomonas aeruginosa ATCC 27853, CBD with FADDI-287, MIC table (Table 95), listed as CBD)?
Answer: 0.53-4 and 0.56-4

Question: And the FICI range (Pseudomonas aeruginosa ATCC 27853, CBD with FADDI-287, Synergy table (Table 97))?
Answer: No Synergy

Question: And the FICI range (Pseudomonas aeruginosa ATCC 27853, CBD with MCC_8980, MIC table (Table 99), listed as CBD)?
Answer: 0.16-1.06 and 0.19-1.06

Question: And the FICI range (Pseudomonas aeruginosa ATCC 27853, CBD with MCC_8980, Synergy table (Table 101), listed as CBD)?
Answer: 0.16-0.25 and 0.19-0.26

Question: What about the FICI range (Pseudomonas aeruginosa ATCC 27853, CBD with Spero Potentiator SPR741, MIC table (Table 91)) of the same molecule?
Answer: 1.01-1.25

Question: What about the FICI range (Pseudomonas aeruginosa ATCC 27853, CBD with Spero Potentiator SPR741, Synergy table (Table 93)) of the same molecule?
Answer: No Synergy

Question: And the FICI range (Pseudomonas aeruginosa ATCC 27853, CBD with Spero SPR206, Synergy table)?
Answer: No Synergy

Question: And the “CBD MIC with FADDI-287” value (Pseudomonas aeruginosa ATCC 27853, FADDI-287 at 0.5 μg/mL, listed as CBD)?
Answer: 16 µg/mL

Question: And the “CBD MIC with MCC_8980” value (Pseudomonas aeruginosa ATCC 27853, MCC_8980 at 8 μg/mL, listed as CBD)?
Answer: 16 µg/mL

Question: And the “CBD MIC with MCC_8980” value (Pseudomonas aeruginosa ATCC 27853, MCC_8980 at 16 μg/mL, listed as CBD)?
Answer: 2 µg/mL

Question: What about the FICI (Pseudomonas aeruginosa ATCC 27853, cannabidiol with FADDI-287 at 0.25 μg/mL) of the same molecule?
Answer: 1.25

Question: And the FICI (Pseudomonas aeruginosa ATCC 27853, cannabidiol with FADDI-287 at 0.5 μg/mL)?
Answer: 0.5312 and 0.5625

Question: And the FICI (Pseudomonas aeruginosa ATCC 27853, cannabidiol with FADDI-287 at 1 μg/mL)?
Answer: 1

Question: What about the FICI (Pseudomonas aeruginosa ATCC 27853, cannabidiol with FADDI-287 at 2 μg/mL) of the same molecule?
Answer: 2

Question: And the FICI (Pseudomonas aeruginosa ATCC 27853, cannabidiol with FADDI-287 at 4 μg/mL)?
Answer: 4

Question: And the FICI (Pseudomonas aeruginosa ATCC 27853, cannabidiol with MCC_8980 at 0.5 μg/mL)?
Answer: 1.008

Question: What about the FICI (Pseudomonas aeruginosa ATCC 27853, cannabidiol with MCC_8980 at 1 μg/mL) of the same molecule?
Answer: 1.016

Question: And the FICI (Pseudomonas aeruginosa ATCC 27853, cannabidiol with MCC_8980 at 4 μg/mL)?
Answer: 1.0625

Question: And the FICI (Pseudomonas aeruginosa ATCC 27853, cannabidiol with MCC_8980 at 8 μg/mL)?
Answer: 0.1562 and 0.1875

Question: What about the FICI (Pseudomonas aeruginosa ATCC 27853, cannabidiol with MCC_8980 at 16 μg/mL) of the same molecule?
Answer: 0.2539 and 0.2578

Question: What about the FICI (Pseudomonas aeruginosa ATCC 27853, cannabidiol with SPR741 at 0.5 μg/mL) of the same molecule?
Answer: 1.008

Question: What about the FICI (Pseudomonas aeruginosa ATCC 27853, cannabidiol with SPR741 at 1 μg/mL) of the same molecule?
Answer: 1.016

Question: And the FICI (Pseudomonas aeruginosa ATCC 27853, cannabidiol with SPR741 at 4 μg/mL)?
Answer: 1.0625

Question: What about the FICI (Pseudomonas aeruginosa ATCC 27853, cannabidiol with SPR741 at 16 μg/mL) of the same molecule?
Answer: 1.25

Question: What about the MIC (ATCC27853, MCC_6442 at 4 μg/mL, Pseudomonas aeruginosa ATCC 27853, read-out: CBD MIC with MCC_6442) of the same molecule?
Answer: 0.001 µg/mL

Question: And the MIC (ATCC27853, Octapeptin C4 at 4 μg/mL, read-out: CBD MIC with Octapeptin C4)?
Answer: 0.001 µg/mL

Question: And the MIC (ATCC27853, Pseudomonas aeruginosa ATCC 27853, FADDI-287 at 0.5 μg/mL, read-out: CBD MIC with FADDI-287)?
Answer: 8 µg/mL

Question: And the MIC (ATCC27853, Pseudomonas aeruginosa ATCC 27853, FADDI-287 at 1 μg/mL, read-out: CBD MIC with FADDI-287)?
Answer: 0.001 µg/mL

Question: And the MIC (ATCC27853, Pseudomonas aeruginosa ATCC 27853, FADDI-287 at 2 μg/mL, read-out: CBD MIC with FADDI-287)?
Answer: 0.001 µg/mL

Question: What about the MIC (ATCC27853, Pseudomonas aeruginosa ATCC 27853, FADDI-287 at 4 μg/mL, read-out: CBD MIC with FADDI-287) of the same molecule?
Answer: 0.001 µg/mL

Question: What about the MIC (ATCC27853, Pseudomonas aeruginosa ATCC 27853, MCC_8980 at 8 μg/mL, read-out: CBD MIC with MCC_8980) of the same molecule?
Answer: 8 µg/mL

Question: What about the MIC (ATCC27853, Pseudomonas aeruginosa ATCC 27853, MCC_8980 at 16 μg/mL, read-out: CBD MIC with MCC_8980) of the same molecule?
Answer: 1 µg/mL

Question: And the MIC (ATCC27853, Spero SPR206 at 0.25 μg/mL, 1st of 3 experiments, read-out: CBD MIC with Spero SPR206)?
Answer: > 256 µg/mL

Question: And the MIC (ATCC27853, Spero SPR206 at 0.25 μg/mL, 3rd of 3 experiments, read-out: CBD MIC with Spero SPR206)?
Answer: > 256 µg/mL

Question: And the MIC (ATCC27853, Spero SPR206 at 0.5 μg/mL, 1st of 3 experiments, read-out: CBD MIC with Spero SPR206)?
Answer: > 256 µg/mL

Question: What about the MIC (ATCC27853, Spero SPR206 at 0.5 μg/mL, 3rd of 3 experiments, read-out: CBD MIC with Spero SPR206) of the same molecule?
Answer: > 256 µg/mL

Question: And the MIC (ATCC27853, Spero SPR206 at 1 μg/mL, 1st of 3 experiments, read-out: CBD MIC with Spero SPR206)?
Answer: 0.001 µg/mL

Question: And the MIC (ATCC27853, Spero SPR206 at 1 μg/mL, 3rd of 3 experiments, read-out: CBD MIC with Spero SPR206)?
Answer: > 256 µg/mL

Question: What about the MIC (ATCC27853, Spero SPR206 at 2 μg/mL, 1st of 3 experiments, read-out: CBD MIC with Spero SPR206) of the same molecule?
Answer: 0.001 µg/mL

Question: What about the MIC (ATCC27853, Spero SPR206 at 2 μg/mL, 3rd of 3 experiments, read-out: CBD MIC with Spero SPR206) of the same molecule?
Answer: > 256 µg/mL

Question: What about the MIC (ATCC27853, Spero SPR206 at 4 μg/mL, 1st of 3 experiments, read-out: CBD MIC with Spero SPR206) of the same molecule?
Answer: 0.001 µg/mL

Question: What about the MIC (ATCC27853, Spero SPR206 at 4 μg/mL, 3rd of 3 experiments, read-out: CBD MIC with Spero SPR206) of the same molecule?
Answer: > 256 µg/mL

Question: What about the “CBD MIC with Ticarcillin” value (Ticarcillin at 16 μg/mL, Pseudomonas aeruginosa ATCC 27853) of the same molecule?
Answer: 0.001 µg/mL

Question: What about the “CBD MIC with Ticarcillin” value (Ticarcillin at 32 μg/mL, Pseudomonas aeruginosa ATCC 27853) of the same molecule?
Answer: 0.001 µg/mL

Question: And the “CBD MIC with Ticarcillin” value (Ticarcillin at 64 μg/mL, Pseudomonas aeruginosa ATCC 27853)?
Answer: 0.001 µg/mL
